Bounds are passed on as bounds.

In test [1] the test system is MCF-7 (human breast adenocarcinoma). Put plainly: MTT cytotoxicity assay, MCF-7. It is filed as cell-based. The settings on record: Homo sapiens, MCF7, 72 h, read-out: IC50 ± SD, MCF7. (Tetrazolium assays rely on reduction of a dye to a coloured formazan, in cell work by metabolically active cells.)
The subject of test [2] is PC3 (human prostate carcinoma). Put plainly: MTT cytotoxicity assay, PC3. The settings on record: 72 h, read-out: IC50 ± SD, PC-3. The class given is cell-based.
In test [3] the test system is normal human dermal/fibroblasts. The test is described as follows: MTT cytotoxicity assay, normal fibroblasts. The class given is cell-based. The settings on record: Homo sapiens, Fibroblast, 72 h, read-out: IC50 ± SD, Fibro dental.
Test [4] deals with HepG2 (hepatocellular carcinoma). Put plainly: MTT cytotoxicity assay, HepG2. It is filed as cell-based, human. The conditions noted are these: Homo sapiens, HepG2, 72 h, read-out: IC50 ± SD, HEPG-2.

As a reminder, the IC50 is the midpoint of a concentration-inhibition curve. Turning to `Cc1nc([N+](=O)[O-])cn1Cc1ccccc1` [Compound 2, N1-benzyl-2-methyl-4-nitroimidazole], the IC50 in test [1] amounted to 68 ± 20 µM.

Consider `Cc1nc([N+](=O)[O-])c(Br)n1Cc1ccccc1` [Compound 3, 5-bromo-N1-benzyl-2-methyl-4-nitroimidazole], for which the IC50 in test [2], in test [3] and in test [4] was over 500 µM throughout.

As for `C#CCN1CCN(c2c([N+](=O)[O-])nc(C)n2Cc2ccccc2)CC1` [Compound 5, 1-(N1-benzyl-2-methyl-4-nitro-imidazole-5-yl)-4-(prop-2-yn-1-yl)piperazine], the IC50 in test [3] is over 500 µM; in test [1], 84 ± 2 µM.

In the case of `Cc1nc([N+](=O)[O-])c(N2CCN(Cc3cn(Cc4ccccc4)nn3)CC2)n1Cc1ccccc1` [Compound 9a, 1-((N1-benzyl-1H-1,2,3-triazol-4-yl)methyl)-4-(N1-benzyl-2-methyl-4-nitro-imidazole-5-yl)piperazine], the IC50 was over 500 µM in test [3] and 55 ± 40 µM in test [1].

As for `Cc1nc([N+](=O)[O-])c(N2CCN(Cc3cn(Cc4ccc(Br)cc4)nn3)CC2)n1Cc1ccccc1` [Compound 9b, 1-(N1-benzyl-2-methyl-4-nitro-imidazole-5-yl)-4-((N1-(4-bromobenzyl)-1H-1,2,3-triazol-4-yl)methyl)piperazine], the IC50 in test [3] is over 500 µM; in test [1], 79 ± 21 µM.

Regarding `Cc1nc([N+](=O)[O-])c(N2CCN(Cc3cn(Cc4cccc([N+](=O)[O-])c4)nn3)CC2)n1Cc1ccccc1` [Compound 9d, 1-(N1-benzyl-2-methyl-4-nitro-imidazole-5-yl)-4-((N1-(3-nitrobenzyl)-1H-1,2,3-triazol-4-yl)methyl)piperazine], in test [1], the IC50 came to 40 ± 15 µM.

As to `Cc1nc([N+](=O)[O-])c(N2CCN(Cc3cn(Cc4cccc(Br)c4)nn3)CC2)n1Cc1ccccc1` [Compound 9f, 1-(N1-benzyl-2-methyl-4-nitro-imidazole-5-yl)-4-((N1-(3-bromobenzyl)-1H-1,2,3-triazol-4-yl)methyl)piperazine], the IC50 in test [1] amounted to 53 ± 60 µM.

For the compound `Cc1nc([N+](=O)[O-])c(N2CCN(Cc3cn(Cc4ccccc4[N+](=O)[O-])nn3)CC2)n1Cc1ccccc1` [Compound 9h, 1-(N1-benzyl-2-methyl-4-nitro-imidazole-5-yl)-4-((N1-(2-nitrobenzyl)-1H-1,2,3-triazol-4-yl)methyl)piperazine], the IC50 was over 500 µM in test [3] and 48 ± 4 µM in test [1].

On to `Cc1nc([N+](=O)[O-])c(N2CCN(Cc3cn(-c4ccc(Br)cc4)nn3)CC2)n1Cc1ccccc1` [Compound 11a, 1-(N1-benzyl-2-methyl-4-nitro-1H-imidazole-5-yl)-4-((N1-(4-bromophenyl)-1H-1,2,3-triazol-4-yl)methyl)piperazine], for which the IC50 in test [2], in test [3] and in test [4] was over 500 µM each time.

Regarding `CSc1ccccc1-n1cc(CN2CCN(c3c([N+](=O)[O-])nc(C)n3Cc3ccccc3)CC2)nn1` [Compound 11b, 1-(N1-benzyl-2-methyl-4-nitro-1H-imidazole-5-yl)-4-((N1-(2-(methylthio)phenyl)-1H-1,2,3-triazol-4-yl)methyl)piperazine], the IC50 in test [1] turned out to be 136 ± 60 µM.

With `CCOc1ccccc1-n1cc(CN2CCN(c3c([N+](=O)[O-])nc(C)n3Cc3ccccc3)CC2)nn1` [Compound 11c, 1-(N1-benzyl-2-methyl-4-nitro-1H-imidazole-5-yl)-4-((N1-(2-ethoxyphenyl)-1H-1,2,3-triazol-4-yl)methyl)piperazine], the IC50 in test [1] amounted to 399 ± 79 µM.

As for `Cc1nc([N+](=O)[O-])c(N2CCN(Cc3cn(-c4ccccc4)nn3)CC2)n1Cc1ccccc1` [Compound 11d, 1-(N1-benzyl-2-methyl-4-nitro-1H-imidazole-5-yl)-4-((N1-phenyl-1H-1,2,3-triazol-4-yl)methyl)piperazine], in test [1], the IC50 was determined as 312 ± 65 µM.

Turning to `Cc1ccc(-n2cc(CN3CCN(c4c([N+](=O)[O-])nc(C)n4Cc4ccccc4)CC3)nn2)cc1` [Compound 11e, 1-(N1-benzyl-2-methyl-4-nitro-1H-imidazole-5-yl)-4-((N1-(p-tolyl)-1H-1,2,3-triazol-4-yl)methyl)piperazine], in test [1], the IC50 turned out to be 219 ± 12 µM.

In the case of `COc1ccc(-n2cc(CN3CCN(c4c([N+](=O)[O-])nc(C)n4Cc4ccccc4)CC3)nn2)cc1` [Compound 11f, 1-(N1-benzyl-2-methyl-4-nitro-1H-imidazole-5-yl)-4-((N1-(4-methoxyphenyl)-1H-1,2,3-triazol-4-yl)methyl)piperazine], the IC50 was over 500 µM in test [3] and 251 ± 71 µM in test [1].

For the compound `Cc1ccccc1-n1cc(CN2CCN(c3c([N+](=O)[O-])nc(C)n3Cc3ccccc3)CC2)nn1` [Compound 11g, 1-(N1-benzyl-2-methyl-4-nitro-1H-imidazole-5-yl)-4-((N1-(o-tolyl)-1H-1,2,3-triazol-4-yl)methyl)piperazine], the IC50 in test [1] was 183 ± 10 µM.

As to `CCc1ccccc1-n1cc(CN2CCN(c3c([N+](=O)[O-])nc(C)n3Cc3ccccc3)CC2)nn1` [Compound 11h, 1-(N1-benzyl-2-methyl-4-nitro-1H-imidazole-5-yl)-4-((N1-(2-ethylphenyl)-1H-1,2,3-triazol-4-yl)methyl)piperazine], in test [1], the IC50 is 88 ± 37 µM.

As for `Cc1nc([N+](=O)[O-])c(N2CCN(Cc3cn(-c4ccccc4[N+](=O)[O-])nn3)CC2)n1Cc1ccccc1` [Compound 11i, 1-(N1-benzyl-2-methyl-4-nitro-1H-imidazole-5-yl)-4-((N1-(2-nitrophenyl)-1H-1,2,3-triazol-4-yl)methyl)piperazine], the values for the IC50 in test [3] and in test [1] were over 500 µM and 185 ± 33 µM, respectively.

Consider `Cc1nc([N+](=O)[O-])c(N2CCN(Cc3cn(-c4ccc([N+](=O)[O-])cc4)nn3)CC2)n1Cc1ccccc1` [Compound 11k, 1-(N1-benzyl-2-methyl-4-nitro-1H-imidazole-5-yl)-4-((N1-(4-nitrophenyl)-1H-1,2,3-triazol-4-yl)methyl)piperazine], for which the IC50 in test [1] was 671 ± 140 µM.

As for `COc1cccc(-n2cc(CN3CCN(c4c([N+](=O)[O-])nc(C)n4Cc4ccccc4)CC3)nn2)c1` [Compound 11l, 1-(N1-benzyl-2-methyl-4-nitro-1H-imidazole-5-yl)-4-((N1-(3-methoxyphenyl)-1H-1,2,3-triazol-4-yl)methyl)piperazine], the IC50 in test [1] worked out at 198 ± 10 µM.

In the case of `Cc1nc([N+](=O)[O-])c(N2CCN(Cc3cn(-c4cccc(Cl)c4)nn3)CC2)n1Cc1ccccc1` [Compound 11n, 1-(N1-benzyl-2-methyl-4-nitro-1H-imidazole-5-yl)-4-((N1-(3-chlorophenyl)-1H-1,2,3-triazol-4-yl)methyl)piperazine], the IC50 in test [3] is over 500 µM; in test [1], 155 ± 70 µM.

Regarding `Cc1nc([N+](=O)[O-])c(N2CCN(Cc3cn(-c4cccc5c4CCCC5)nn3)CC2)n1Cc1ccccc1` [Compound 11o, 1-(N1-benzyl-2-methyl-4-nitro-1H-imidazole-5-yl)-4-((N1-(5,6,7,8-tetrahydronaphthalen-1-yl)-1H-1,2,3-triazol-4-yl)methyl)piperazine], the IC50 in test [2] is over 500 µM; in test [3], over 500 µM; in test [1], 131 ± 30 µM.

For the compound `Cc1nc([N+](=O)[O-])c(N2CCN(Cc3cn(-c4cccc5ccccc45)nn3)CC2)n1Cc1ccccc1` [Compound 11q, 1-(N1-benzyl-2-methyl-4-nitro-1H-imidazole-5-yl)-4-((N1-(naphthalen-1-yl)-1H-1,2,3-triazol-4-yl)methyl)piperazine], the IC50 in test [1] is 270 ± 40 µM.

The record behind these values is publication PMC10480608 (Heliyon, 2023).
